Structures can show the parent of a compound that is named as a salt. Where two headings read alike, the source gives them in different places.
Experiments:
5-HT2 receptors = target: T1, 5-HT2 receptors (Rattus norvegicus, UniProt P14842); assay: Inhibition of ^3 H-Ketanserin Binding to 5-HT2 Receptors in Rat Cortex in vitro
T1 construct: 5-HT2 Receptors in Rat Cortex in vitro; from tissue; host or cells: rat cortex membranes
Procedure: Inhibition of ^3 H-Ketanserin Binding to 5-HT2 Receptors in Rat Cortex in vitro
By this method the inhibition by drugs of the binding of ^3 H-Ketanserin (0,5 nM) to 5-HT2 receptors in membranes from rat is determined in vitro. The method is described in Hyttel, Pharmacol. & Toxicol.

dopamine D2 receptors = dopamine D2 receptors (Rattus norvegicus, UniProt P61169); assay: biochemical; type: binding
Procedure: Inhibition of ^3 H-Spiroperidol Binding to Dopamine D2 Receptors in Rat Corpus Striatum in vitro
By this method the inhibition by drugs of the binding of ^3 H-spiroperidol (0.5 nM) to dopamine D2 receptors in membranes from rat corpus striatum is determined in vitro.

[1] = ^3 H-Ketanserin 0,5 nM, rat cortex membranes, read-out: 5-HT2 binding ^3 H ketanserin, IC50
[2] = read-out: Dopamin D2 binding ^3 H spiroperidol, IC50
[3] = ^3 H-spiroperidol 0.5 nM, rat corpus striatum membranes, read-out: Dopamin D2 binding ^3 H spiroperidol, IC50

Sequence of dopamine D2 receptors (P61169 whole entry): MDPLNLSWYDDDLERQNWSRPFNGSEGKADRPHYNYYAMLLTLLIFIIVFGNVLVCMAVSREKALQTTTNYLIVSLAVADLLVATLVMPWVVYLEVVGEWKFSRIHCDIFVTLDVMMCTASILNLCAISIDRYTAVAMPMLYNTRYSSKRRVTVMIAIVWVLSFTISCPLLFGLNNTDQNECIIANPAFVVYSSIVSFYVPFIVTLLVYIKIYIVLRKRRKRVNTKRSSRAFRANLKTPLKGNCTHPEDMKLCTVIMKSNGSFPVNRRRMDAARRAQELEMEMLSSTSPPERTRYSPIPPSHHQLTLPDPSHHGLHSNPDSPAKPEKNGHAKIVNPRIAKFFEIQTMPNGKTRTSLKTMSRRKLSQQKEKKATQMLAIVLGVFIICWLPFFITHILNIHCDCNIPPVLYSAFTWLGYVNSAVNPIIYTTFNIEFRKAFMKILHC
T1 sequence (P14842 whole entry): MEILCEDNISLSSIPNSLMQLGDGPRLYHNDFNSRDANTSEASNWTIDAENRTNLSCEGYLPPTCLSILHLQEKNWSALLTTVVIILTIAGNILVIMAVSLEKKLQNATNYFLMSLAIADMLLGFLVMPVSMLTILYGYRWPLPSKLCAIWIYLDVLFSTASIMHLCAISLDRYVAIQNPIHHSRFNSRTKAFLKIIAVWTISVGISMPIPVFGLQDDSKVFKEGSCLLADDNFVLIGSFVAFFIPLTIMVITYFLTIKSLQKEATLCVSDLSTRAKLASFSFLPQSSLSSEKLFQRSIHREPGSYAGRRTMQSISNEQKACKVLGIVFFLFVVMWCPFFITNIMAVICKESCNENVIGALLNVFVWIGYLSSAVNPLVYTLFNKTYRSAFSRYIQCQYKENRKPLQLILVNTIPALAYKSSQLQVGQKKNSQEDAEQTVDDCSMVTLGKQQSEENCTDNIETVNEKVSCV

Compound	IC50 (5-HT2 receptors; [1])	IC50 (dopamine D2 receptors; [3])	also measured
CN(C)CCOc1cn(-c2ccc(F)cc2)c2ccc(Br)cc12 [Compound 16a, N,N-Dimethyl-2-[5-bromo-1-(4-fluorophenyl)-1H-indol-3-yloxy]ethylamine, Hydrochloride]	7 nM	–	IC50 (dopamine D2 receptors; [2]): 6.2 nM
CN(C)CCOc1cn(-c2ccc(F)cc2)c2ccc(Cl)cc12 [Compound 4a, N,N-Dimethyl-2-[5-chloro-1-(4-fluorophenyl)-3-1H-indolyloxy]ethylamine sesqui fumarate]	4.2 nM	2.9 nM	–
CN(C)C(C)(C)COc1cn(-c2ccc(F)cc2)c2ccc(Cl)cc12 [Compound 6c, N,N-Dimethyl-1,1-dimethyl-2-[5-chloro-1-(4-fluorophenyl)-3-1H-indolyloxy]ethylamine oxalate]	42 nM	–	IC50 (dopamine D2 receptors; [2]): 330 nM
CC(C)N1CCN(CCN(C)CCOc2cn(-c3ccc(F)cc3)c3cc(Cl)ccc23)C1=O [Compound 4i, 1-[2-[[2-[6-Chloro-1-(4-fluorophenyl)-3-1H-indolyloxy]ethyl]methylamino]ethyl]-3-(2-propyl)-2-imidazolidinone oxalate]	6.3 nM	–	IC50 (dopamine D2 receptors; [2]): 120 nM
5-Chloro-1-(4-fluorophenyl)-3-[3-(4-piperidinyl)propyl]-1H-indole hydrochloride [Compound 3d]	110 nM	21 nM	–
CN(CCCc1cn(-c2ccc(F)cc2)c2ccc(Cl)cc12)CCN1CCNC1=O [Compound 3b, 1-[2-[[3-[5-chloro-1-(4-fluorophenyl)-3-1H-indolyl]propyl]methylamino]ethyl]-2-imidazolidinone fumarate]	7.8 nM	190 nM	–
Fc1ccc(-n2cc(CCN3CCOCC3)c3cc(Cl)ccc32)cc1 [Compound 14c, 5-chloro-1-(4-fluorophenyl)-3-(2-(4-morpholinyl)ethyl)-1H-indole fumarate]	22 nM	–	IC50 (dopamine D2 receptors): 54 nM
CN(C)CCc1cn(-c2ccc(F)cc2)c2ccc(Cl)cc12 [Compound 14b, N,N-Dimethyl-2-(5-chloro-1-(4-fluorophenyl)-3-1H-indolyl)ethylamine maleate]	8.9 nM	–	IC50 (dopamine D2 receptors; [2]): 38 nM
Fc1ccc(-n2cc(OCCN3CCCC3)c3ccc(Cl)cc32)cc1 [Compound 4o, 6-Chloro-1-(4-fluorophenyl)-2-(1-pyrrolidinyl)ethoxy-1H-indole]	–	23 nM	IC50 (5-HT2 receptors): 30 nM
CN(CCN1CCNC1=O)Cc1cn(-c2ccc(F)cc2)c2ccc(Cl)cc12 [Compound 4s, 1-[2-[[5-chloro-1-(4-fluorophenyl)-3-1H-indolylmethyl]methylamino]ethyl]-2-imidazolidinone]	20 nM	22 nM	–
C[C@@H](CN(C)CCOc1cn(-c2ccc(F)cc2)c2ccc(Cl)cc12)N1CCNC1=O [Compound 8b, (S)-1-[1-methyl-2-[[2-[5-chloro-1-(4-fluorophenyl)-3-1H-indolyloxy]ethyl]methylamino]ethyl]-2-imidazolidinone oxalate]	220 nM	–	IC50 (dopamine D2 receptors; [2]): 35 nM
CN1CCCC1COc1cn(-c2ccc(F)cc2)c2ccc(Cl)cc12 (stereo in doubt) [Compound 7b, (S)-1-Methyl-2-pyrrolidinylmethoxy-5-chloro-1-(4-fluorophenyl)-1H-indole oxalate]	–	18 nM	IC50 (5-HT2 receptors; read-out: 5-HT2 binding ^3 H ketanserin, IC50, ^3 H-Ketanserin 0,5 nM, rat cortex membranes): 8.2 nM
CN(CCCN1CCNC1=O)CCc1cn(-c2ccc(F)cc2)c2ccc(Cl)cc12 [Compound 4u, 1-[3-[[2-[5-chloro-1-(4-fluorophenyl)-3-1H-indolyl]ethyl]methylamino]propyl]-2-imidazolidinone hydrochloride]	1 nM	–	IC50 (dopamine D2 receptors; [2]): 19 nM
CN(C)CCOc1cn(-c2ccc(F)cc2)c2cc(Cl)ccc12 [Compound 4j, N,N-Dimethyl-2-[6-chloro-1-(4-fluorophenyl)-3-1H-indolyloxy]ethylamine]	17 nM	63 nM	–
CN(C)CCCc1cn(-c2ccc(F)cc2)c2ccc(Cl)cc12 [Compound 3a, N,N-Dimethyl-3-[5-chloro-1-(4-fluorophenyl)-3-1H-indolyl]propylamine fumarate]	19 nM	42 nM	–
CN(CCOc1cn(-c2ccc(F)cc2)c2ccc(Cl)cc12)CCN1CCNC1=O [Compound 4b, 1-[2-[[2-[5-chloro-1-(4-fluorophenyl)-3-1H-indolyloxy]ethyl]methylamino]ethyl]-2-imidazolidinone Maleate]	0.88 nM	5.8 nM	–
Cc1c(OCCN(C)C)c2cc(Cl)ccc2n1-c1ccc(F)cc1 [Compound 10, N,N-Dimethyl-2-[5-chloro-1-(4-fluorophenyl)-2-methyl-3-1H-indolyloxy]ethylamine Oxalate]	11 nM	–	IC50 (dopamine D2 receptors; [2]): 83 nM
Fc1ccc(-n2cc(OCCN3CCCCC3)c3cc(Cl)ccc32)cc1 [Compound 4e, 5-Chloro-1-(4-fluorophenyl)-3-[2-(1-piperidinyl)ethoxy]-1H-indole]	5.9 nM	2.3 nM	–
CN(C)Cc1cn(-c2ccc(F)cc2)c2ccc(Cl)cc12 [Compound 13a, N,N-Dimethyl-[5-chloro-1-(4-fluorophenyl)-3-1H-indolyl]methylamine Maleate]	12 nM	19 nM	–
CN(CCc1cn(-c2ccc(F)cc2)c2ccc(Cl)cc12)CCN1CCNC1=O [Compound 4v, 1-[2-[[2-[5-chloro-1-(4-fluorophenyl)-3-1H-indolyl]ethyl]methylamino]ethyl]-2-imidazolidinone maleate]	5.3 nM	25 nM	–
Fc1ccc(-n2cc(OCCN3CCCCC3)c3ccc(Cl)cc32)cc1 [Compound 4p, 6-Chloro-1-(4-fluorophenyl)-2-(1-piperidinyl)ethoxy-1H-indole]	–	17 nM	IC50 (5-HT2 receptors): 35 nM
CN1CCC[C@H]1COc1cn(-c2ccc(F)cc2)c2ccc(Cl)cc12 [Compound 7a, (S)-1-Methyl-2-pyrrolidinylmethoxy-5-chloro-1-(4-fluorophenyl)-1H-indole Oxalate]	18 nM	30 nM	–
CN(CCOc1cn(-c2ccc(F)cc2)c2cc(Cl)ccc12)CCN1CCNC1=O [Compound 4h, 1-[2-[[2-[6-chloro-1-(4-fluorophenyl)-3-1H-indolyloxy]ethyl]methylamino]ethyl]-2-imidazolidinone]	2 nM	200 nM	–
CN(CCSc1cn(-c2ccc(F)cc2)c2ccc(Cl)cc12)CCN1CCNC1=O [Compound 4r, 1-[2-[[2-[5-Chloro-1-(4-fluorophenyl)-3-1H-indolylthio]ethyl]methylamino]ethyl]-2-imidazolidinone]	86 nM	–	IC50 (dopamine D2 receptors): 770 nM
CN(C)CCSc1cn(-c2ccc(F)cc2)c2ccc(Cl)cc12 [Compound 4q, N,N-Dimethyl-2-[5-chloro-1-(4-fluorophenyl)-3-1H-indolylthio]ethylamine hydrochloride]	43 nM	–	IC50 (dopamine D2 receptors; [2]): 140 nM
Fc1ccc(-n2cc(OCCN3CCOCC3)c3cc(Cl)ccc32)cc1 [Compound 4f, 5-Chloro-1-(4-fluorophenyl)-3-[2-(4-morpholinyl)ethoxy]-1H-indole maleate]	48 nM	27 nM	–
CNCCc1cn(-c2ccc(F)cc2)c2ccc(Cl)cc12 [Compound 15a, N-methyl-2-(5-chloro-1-(4-fluorophenyl)-3-1H-indolyl)ethylamine Maleate]	17 nM	–	IC50 (dopamine D2 receptors): 24 nM

Reference: patent US5789404A, “3-substituted 1-arylindole compounds” (H. Lundbeck A/S, priority 1993, dated 1998)
